# Laboratory results as given in patent publication US20230183218A1, “CONDENSED SUBSTITUTED HYDROPYRROLES AS ANTAGONISTS OF THE MUSCARINIC ACETYLCHOLINE RECEPTOR M4” (Vanderbilt University, priority 2020, published 2023).
# Tests used:
# Human M4 = target: T1, Human M4 (Homo sapiens, UniProt P08173); assay: mAChR M4 cell-based functional assay (calcium flux, antagonist mode vs EC80 acetylcholine), human M4/Gqi5/CHO-K1 cells; details: for remaining activity at 30 µM: CHO-K1, read-out: Human M4 Emin (%); for IC50: decrease of response elicited by EC80 acetylcholine, human M4/Gqi5 CHO-K1 cells
# T1 construct: expressed in transfected cells; host or cells: CHO-K1 (ATCC), stably co-expressing chimeric G protein Gqi5
# T1 sequence (P08173 1-479): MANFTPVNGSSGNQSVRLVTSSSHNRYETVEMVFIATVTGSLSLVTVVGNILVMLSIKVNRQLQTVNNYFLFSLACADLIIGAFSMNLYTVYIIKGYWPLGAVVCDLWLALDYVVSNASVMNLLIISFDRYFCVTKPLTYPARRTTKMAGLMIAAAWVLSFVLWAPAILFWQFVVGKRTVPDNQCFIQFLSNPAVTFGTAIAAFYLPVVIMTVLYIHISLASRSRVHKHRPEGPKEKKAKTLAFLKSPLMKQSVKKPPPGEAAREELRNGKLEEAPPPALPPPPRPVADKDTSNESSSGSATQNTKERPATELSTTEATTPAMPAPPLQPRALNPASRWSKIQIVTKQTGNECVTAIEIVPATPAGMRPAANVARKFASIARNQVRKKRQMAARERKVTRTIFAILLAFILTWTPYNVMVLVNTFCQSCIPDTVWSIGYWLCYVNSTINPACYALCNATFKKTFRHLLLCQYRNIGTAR
# Summary of the method: (§1)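 CHO-K1 cells stably expressing human or rat M4 with Gqi5, Fluo-4 loaded; calcium measured by fluorescence ratio on FDSS. Compound added, then EC20 acetylcholine at 143 s and EC80 at 268 s; IC50 from decrease of EC80 response, four-parameter logistic fit.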
# Rat M4 = target: T2, Rat M4 (Rattus norvegicus, UniProt P08485); assay: mAChR M4 cell-based functional assay (calcium flux, antagonist mode vs EC80 acetylcholine), rat M4/Gqi5/CHO-K1 cells; details: for remaining activity at 30 µM: CHO-K1, read-out: Rat M4 Emin (%); for IC50: decrease of response elicited by EC80 acetylcholine, rat M4/Gqi5 CHO-K1 cells
# T2 construct: expressed in transfected cells; host or cells: CHO-K1 (ATCC), stably co-expressing chimeric G protein Gqi5
# T2 sequence (P08485 1-478): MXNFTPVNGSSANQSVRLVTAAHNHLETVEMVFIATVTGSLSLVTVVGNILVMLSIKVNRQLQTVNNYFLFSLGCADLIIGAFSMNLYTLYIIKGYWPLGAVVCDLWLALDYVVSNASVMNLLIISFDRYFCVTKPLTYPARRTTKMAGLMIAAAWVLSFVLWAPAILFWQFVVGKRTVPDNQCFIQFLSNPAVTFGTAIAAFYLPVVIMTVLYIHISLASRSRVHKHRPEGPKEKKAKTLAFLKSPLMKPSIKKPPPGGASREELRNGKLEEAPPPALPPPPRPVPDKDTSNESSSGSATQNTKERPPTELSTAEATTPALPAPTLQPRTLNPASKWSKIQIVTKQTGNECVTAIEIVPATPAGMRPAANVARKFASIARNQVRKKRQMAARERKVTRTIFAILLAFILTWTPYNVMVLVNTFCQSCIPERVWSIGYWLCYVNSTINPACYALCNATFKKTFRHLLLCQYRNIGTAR
# Summary of the method: as §1
# [1] = % ACh maximum at 30 μM, human M4
SMILES,remaining activity at 30 µM (Human M4; [1]) [%],IC50 (Human M4) [nM],"remaining activity at 30 µM (Rat M4; % ACh maximum at 30 μM, rat M4) [%]",IC50 (Rat M4) [nM],Human M4 Emin (%) (Human M4; [1]),"Rat M4 Emin (%) (Rat M4; % ACh maximum at 30 μM, rat M4)"
"Cn1cc2cc(-c3ccc(N[C@H]4C[C@@H]5CN(C6CCOC(C)(C)C6)C[C@@H]5C4)nn3)ccc2n1 (stereo partly drawn) [compound 63, (3aR,5s,6aS)-2-(2,2-dimethyltetrahydro-2H-pyran-4-yl)-N-(6-(2-methyl-2H-indazol-5-yl)pyridazin-3-yl)octahydrocyclopenta[c]pyrrol-5-amine]",3,9.53,5,374,–,–
"CC1(C)CC(N2C[C@H]3C[C@H](Nc4ccc([S+]([O-])c5ccccc5)nn4)C[C@H]3C2)CCO1 (stereo partly drawn) [compound 65, (3aR,5s,6aS)-2-(2,2-dimethyltetrahydro-2H-pyran-4-yl)-N-(6-(phenylsulfinyl)pyridazin-3-yl)octahydrocyclopenta[c]pyrrol-5-amine]",5,–,10,–,–,–
"CC1(C)CC(N2C[C@H]3C[C@H](Nc4ccc(S(=O)(=O)C5CCCCC5)nn4)C[C@H]3C2)CCO1 (stereo partly drawn) [compound 66, (3aR,5s,6aS)-N-(6-(cyclohexylsulfonyl)pyridazin-3-yl)-2-(2,2-dimethyltetrahydro-2H-pyran-4-yl)octahydrocyclopenta[c]pyrrol-5-amine]",–,–,–,460,5,7
"Fc1ccc(Cl)c(-c2ccc(N[C@H]3C[C@@H]4CN(C5CCC(F)(F)CC5)C[C@@H]4C3)nn2)c1 [compound 67, (3aR,5s,6aS)-N-(6-(2-chloro-5-fluorophenyl)pyridazin-3-yl)-2-(4,4-difluorocyclohexyl)octahydrocyclopenta[c]pyrrol-5-amine]",4,2.42,13,436,–,–
"Fc1ccc(Cl)c(-c2ccc(N[C@H]3C[C@@H]4CN(C5CC6(COC6)C5)C[C@@H]4C3)nn2)c1 [compound 69, (3aR,5s,6aS)-N-(6-(2-chloro-5-fluorophenyl)pyridazin-3-yl)-2-(2-oxaspiro[3.3]heptan-6-yl)octahydrocyclopenta[c]pyrrol-5-amine]",4,11.8,17,905,–,–
"CC1(C)C(=O)N(C2CC2)c2nnc(N[C@H]3C[C@@H]4CN(CC5CCOCC5)C[C@@H]4C3)cc21 [compound 70, 7-cyclopropyl-5,5-dimethyl-3-(((3aR,5s,6aS)-2-((tetrahydro-2H-pyran-4-yl)methyl)octahydrocyclopenta[c]pyrrol-5-yl)amino)-5,7-dihydro-6H-pyrrolo [2,3-c]pyridazin-6-one]",4,12.8,13,3970,–,–
"CCCN1C(=O)C(C)(C)c2cc(N[C@H]3C[C@@H]4CN(CCC(C)(C)C)C[C@@H]4C3)nnc21 [compound 72, 3-(((3aR,5s,6aS)-2-(3,3-dimethylbutyl)octahydrocyclopenta[c]pyrrol-5-yl)amino)-5,5-dimethyl-7-propyl-5,7-dihydro-6H-pyrrolo[2,3-c]pyridazin-6-one]",4,10.5,4,217,–,–
"Fc1ccc(Cl)c(-c2ccc(N[C@H]3C[C@@H]4CN(C5CCCC5)C[C@@H]4C3)nn2)c1 [compound 74, (3aR,5s,6aS)-N-(6-(2-chloro-5-fluorophenyl)pyridazin-3-yl)-2-cyclopentyloctahydrocyclopenta[c]pyrrol-5-amine]",2,27.3,4,933,–,–
"Fc1ccc(Cl)c(-c2ccc(N[C@H]3C[C@@H]4CN(C5CCCCCC5)C[C@@H]4C3)nn2)c1 [compound 75, (3aR,5s,6aS)-N-(6-(2-chloro-5-fluorophenyl)pyridazin-3-yl)-2-cycloheptyloctahydrocyclopenta[c]pyrrol-5-amine]",2,3.2,3,41.8,–,–
"Fc1ccc(Cl)c(-c2ccc(N[C@H]3C[C@@H]4CN(C5Cc6ccccc6C5)C[C@@H]4C3)nn2)c1 [compound 76, (3aR,5s,6aS)-N-(6-(2-chloro-5-fluorophenyl)pyridazin-3-yl)-2-(2,3-dihydro-1H-inden-2-yl)octahydrocyclopenta[c]pyrrol-5-amine]",3,189,4,350,–,–
"Fc1ccc(Cl)c(-c2ccc(N[C@H]3C[C@@H]4CN(C5CCC6(CCOCC6)CC5)C[C@@H]4C3)nn2)c1 [compound 78, (3aR,5s,6aS)-N-(6-(2-chloro-5-fluorophenyl)pyridazin-3-yl)-2-(3-oxaspiro[5.5]undecan-9-yl)octahydrocyclopenta[c]pyrrol-5-amine]",3,2.3,3,102,–,–
"O=S1(=O)CCC(N2C[C@H]3C[C@H](Nc4ccc(-c5cc(F)ccc5Cl)nn4)C[C@H]3C2)CC1 [compound 79, 4-((3aR,5s,6aS)-5-((6-(2-chloro-5-fluorophenyl)pyridazin-3-yl)amino)hexahydrocyclopenta[c]pyrrol-2(1H)-yl)tetrahydro-2H-thiopyran 1,1-dioxide]",8,1750,42,> 10000,–,–

# Results, then the molecule that gave them:
remaining activity at 30 µM (Human M4; [1]) [%],IC50 (Human M4) [nM],"remaining activity at 30 µM (Rat M4; % ACh maximum at 30 μM, rat M4) [%]",IC50 (Rat M4) [nM],Human M4 Emin (%) (Human M4; [1]),"Rat M4 Emin (%) (Rat M4; % ACh maximum at 30 μM, rat M4)",SMILES
9,1730,11,2130,–,–,"Cn1cc2cc(-c3ccc(N[C@H]4C[C@@H]5CN(C6CCOCC6)C[C@@H]5C4)nn3)ccc2n1 [compound 62, (3aR,5s,6aS)-N-(6-(2-methyl-2H-indazol-5-yl)pyridazin-3-yl)-2-(tetrahydro-2H-pyran-4-yl)octahydrocyclopenta[c]pyrrol-5-amine]"
4,161,32,> 10000,–,–,"Fc1ccc(Cl)c(-c2ccc(N[C@H]3C[C@@H]4CN(C5(C6CCOCC6)CC5)C[C@@H]4C3)nn2)c1 [compound 64, (3aR,5s,6aS)-N-(6-(2-chloro-5-fluorophenyl)pyridazin-3-yl)-2-(1-(tetrahydro-2H-pyran-4-yl)cyclopropyl)octahydrocyclopenta[c]pyrrol-5-amine]"
3,2.79,2,102,–,–,"CC1(C)CCC(N2C[C@H]3C[C@H](Nc4ccc(-c5cc(F)ccc5Cl)nn4)C[C@H]3C2)CC1 [compound 68, (3aR,5s,6aS)-N-(6-(2-chloro-5-fluorophenyl)pyridazin-3-yl)-2-(4,4-dimethylcyclohexyl)octahydrocyclopenta[c]pyrrol-5-amine]"
3,12.4,5,369,–,–,"C=CCN1C(=O)C(C)(C)c2cc(N[C@H]3C[C@@H]4CN(CCC(C)(C)C)C[C@@H]4C3)nnc21 [compound 71, 7-allyl-3-(((3aR,5s,6aS)-2-(3,3-dimethylbutyl)octahydrocyclopenta[c]pyrrol-5-yl)amino)-5,5-dimethyl-5,7-dihydro-6H-pyrrolo[2,3-c]pyridazin-6-one]"
3,13.5,8,1360,–,–,"CC(C)(O)CN1C[C@H]2C[C@H](Nc3ccc(-c4cc(F)ccc4Cl)nn3)C[C@H]2C1 [compound 73, 1-((3aR,5s,6aS)-5-((6-(2-Chloro-5-fluorophenyl)pyridazin-3-yl)amino)hexahydrocyclopenta[c]pyrrol-2(1H)-yl)-2-methylpropan-2-ol]"
3,25.7,7,387,–,–,"Fc1ccc(Cl)c(-c2ccc(N[C@H]3C[C@@H]4CN(C5CCC6(CCCCC6)CC5)C[C@@H]4C3)nn2)c1 [compound 77, (3aR,5s,6aS)-N-(6-(2-chloro-5-fluorophenyl)pyridazin-3-yl)-2-(spiro[5.5]undecan-3-yl)octahydrocyclopenta[c]pyrrol-5-amine]"
